Reference: patent US12077503B2, “Substituted cyclic amides and their use as herbicides” (FMC CORPORATION, priority 2015, dated 2024)

What was measured:
Format in all cases: in vivo
[1] = system: waterhemp (common waterhemp, Amaranthus rudis); assay: Test C preemergence; conditions: for Plant response rating, Waterhemp: scale 0 to 100, 0 no effect, 100 complete control
How it was run: (§1)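 Scores of 0 to 100 reflect visual comparison with control plants, where 0 means no effect and 100 complete control, made 13 to 15 d after treatment. Application was preemergence to seeds in loam-sand soil or postemergence to plants 2 to 18 cm tall in peat-based mix, using a surfactant-containing solvent formulation.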

[2] = system: velvetleaf (Abutilon theophrasti); assay: Test C preemergence; conditions: for Plant response rating, Velvetleaf: scale 0 to 100, 0 no effect, 100 complete control
How it was run: as §1

[3] = system: oilseed rape (Brassica napus); assay: Test C preemergence; conditions: for Plant response rating, Oilseed Rape: scale 0 to 100, 0 no effect, 100 complete control
How it was run: as §1

[4] = system: blackgrass (Alopecurus myosuroides); assay: Test C preemergence; conditions: for Plant response rating, Blackgrass: scale 0 to 100, 0 no effect, 100 complete control
How it was run: as §1

[5] = system: ragweed (common ragweed, Ambrosia elatior); assay: Test C preemergence; conditions: for Plant response rating, Ragweed: scale 0 to 100, 0 no effect, 100 complete control
How it was run: as §1

[6] = system: corn (Zea mays); assay: Test C preemergence; conditions: for Plant response rating, Corn: scale 0 to 100, 0 no effect, 100 complete control
How it was run: as §1

[7] = system: nutsedge, yellow (yellow nutsedge, Cyperus esculentus); assay: Test C preemergence; conditions: for Plant response rating, Nutsedge, Yellow: scale 0 to 100, 0 no effect, 100 complete control
How it was run: as §1

[8] = system: ryegrass, Italian (Italian ryegrass, Lolium multiflorum); assay: Test C preemergence; conditions: for Plant response rating, Ryegrass, Italian: scale 0 to 100, 0 no effect, 100 complete control
How it was run: as §1

[9] = system: pigweed (Amaranthus retroflexus); assay: Test C preemergence; conditions: for Plant response rating, Pigweed: scale 0 to 100, 0 no effect, 100 complete control
How it was run: as §1

[10] = system: Galium (catchweed bedstraw, Galium aparine); assay: Test C preemergence; conditions: for Plant response rating, Galium: scale 0 to 100, 0 no effect, 100 complete control
How it was run: as §1

[11] = system: morningglory (Ipomoea coccinea); assay: Test C preemergence; conditions: for Plant response rating, Morningglory: scale 0 to 100, 0 no effect, 100 complete control
How it was run: as §1

[12] = system: soybean (Glycine max); assay: Test C preemergence
How it was run: as §1

[13] = system: lambsquarters (Chenopodium album); assay: Test C preemergence; conditions: for Plant response rating, Lambsquarters: scale 0 to 100, 0 no effect, 100 complete control
How it was run: as §1

[14] = system: crabgrass, large (large crabgrass, Digitaria sanguinalis); assay: Test C preemergence; conditions: for Plant response rating, Crabgrass, Large: scale 0 to 100, 0 no effect, 100 complete control
How it was run: as §1

[15] = system: johnsongrass (Sorghum halepense); assay: Test C preemergence; conditions: for Plant response rating, Johnsongrass: scale 0 to 100, 0 no effect, 100 complete control
How it was run: as §1

[16] = system: barnyardgrass (Echinochloa crus-galli); assay: Test C preemergence; conditions: for Plant response rating, Barnyardgrass: scale 0 to 100, 0 no effect, 100 complete control
How it was run: as §1

[17] = system: wheat (winter wheat, Triticum aestivum); assay: Test C preemergence; conditions: for Plant response rating, Wheat: scale 0 to 100, 0 no effect, 100 complete control
How it was run: as §1

[18] = system: rice (Oryza sativa); assay: Test C flooded paddy test; conditions: Flood; for Plant response rating (scale of 0 to 100), Rice: 0 is no effect, 100 is complete control
How it was run: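 Scores express visual response relative to untreated controls, 0 meaning no effect and 100 complete control, assessed 13 to 15 d after treatment in the greenhouse. Compound went into water flooded 3 cm above soil around 2-leaf plants.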

[19] = 31 g ai/ha, 0 is no effect, 100 is complete control

Cc1ccc(C2CN(C)C(=O)C2C(=O)Nc2ccccc2F)cc1F (stereo not shown) [Compound 465]
Plant response rating (scale of 0 to 100), Waterhemp [1, 19]: 60 | Plant response rating, Waterhemp ([1]; 62 g ai/ha): 70 | Plant response rating, Waterhemp ([1]; 125 g ai/ha): 80 | Plant response rating, Waterhemp ([1]; 250 g ai/ha): 80 | Plant response rating (scale of 0 to 100), Velvetleaf [2, 19]: 15 | Plant response rating, Velvetleaf ([2]; 62 g ai/ha): 5 | Plant response rating, Velvetleaf ([2]; 125 g ai/ha): 55 | Plant response rating, Velvetleaf ([2]; 250 g ai/ha): 65 | Plant response rating (scale of 0 to 100), Oilseed Rape [3, 19]: 30 | Plant response rating, Oilseed Rape ([3]; 62 g ai/ha): 10 | Plant response rating, Oilseed Rape ([3]; 125 g ai/ha): 85 | Plant response rating, Oilseed Rape ([3]; 250 g ai/ha): 90 | Plant response rating (scale of 0 to 100), Blackgrass [4, 19]: 20 | Plant response rating, Blackgrass ([4]; 62 g ai/ha): 50 | Plant response rating, Blackgrass ([4]; 125 g ai/ha): 80 | Plant response rating, Blackgrass ([4]; 250 g ai/ha): 90 | Plant response rating (scale of 0 to 100), Ragweed [5, 19]: 0 | Plant response rating, Ragweed ([5]; 62 g ai/ha): 60 | Plant response rating, Ragweed ([5]; 125 g ai/ha): 75 | Plant response rating, Ragweed ([5]; 250 g ai/ha): 80 | Plant response rating (scale of 0 to 100), Corn [6, 19]: 40 | Plant response rating, Corn ([6]; 62 g ai/ha): 55 | Plant response rating, Corn ([6]; 125 g ai/ha): 65 | Plant response rating, Corn ([6]; 250 g ai/ha): 90 | Plant response rating (scale of 0 to 100), Nutsedge, Yellow [7, 19]: 0 | Plant response rating, Nutsedge, Yellow ([7]; 62 g ai/ha): 0 | Plant response rating, Nutsedge, Yellow ([7]; 125 g ai/ha): 0 | Plant response rating, Nutsedge, Yellow ([7]; 250 g ai/ha): 0 | Plant response rating (scale of 0 to 100), Ryegrass, Italian [8, 19]: 10 | Plant response rating, Ryegrass, Italian ([8]; 62 g ai/ha): 70 | Plant response rating, Ryegrass, Italian ([8]; 125 g ai/ha): 65 | Plant response rating, Ryegrass, Italian ([8]; 250 g ai/ha): 65 | Plant response rating (scale of 0 to 100), Pigweed [9, 19]: 10 | Plant response rating, Pigweed ([9]; 62 g ai/ha): 25 | Plant response rating, Pigweed ([9]; 125 g ai/ha): 60 | Plant response rating, Pigweed ([9]; 250 g ai/ha): 55 | Plant response rating (scale of 0 to 100), Galium [10, 19]: 80 | Plant response rating, Galium ([10]; 62 g ai/ha): 85 | Plant response rating, Galium ([10]; 125 g ai/ha): 90 | Plant response rating, Galium ([10]; 250 g ai/ha): 98 | Plant response rating (scale of 0 to 100), Morningglory [11, 19]: 5 | Plant response rating, Morningglory ([11]; 62 g ai/ha): 20 | Plant response rating, Morningglory ([11]; 125 g ai/ha): 25 | Plant response rating, Morningglory ([11]; 250 g ai/ha): 50 | Plant response rating (scale of 0 to 100), Soybean [12, 19]: 5 | Plant response rating, Soybean ([12]; 250 g ai/ha, scale 0 to 100, 0 no effect, 100 complete control): 15 | Plant response rating (scale of 0 to 100), Lambsquarters [13, 19]: 75 | Plant response rating, Lambsquarters ([13]; 62 g ai/ha): 75 | Plant response rating, Lambsquarters ([13]; 125 g ai/ha): 85 | Plant response rating, Lambsquarters ([13]; 250 g ai/ha): 100 | Plant response rating (scale of 0 to 100), Crabgrass, Large [14, 19]: 100 | Plant response rating, Crabgrass, Large ([14]; 62 g ai/ha): 100 | Plant response rating, Crabgrass, Large ([14]; 125 g ai/ha): 100 | Plant response rating, Crabgrass, Large ([14]; 250 g ai/ha): 100 | Plant response rating (scale of 0 to 100), Johnsongrass [15, 19]: 10 | Plant response rating, Johnsongrass ([15]; 62 g ai/ha): 65 | Plant response rating, Johnsongrass ([15]; 125 g ai/ha): 80 | Plant response rating, Johnsongrass ([15]; 250 g ai/ha): 85 | Plant response rating (scale of 0 to 100), Barnyardgrass [16, 19]: 90 | Plant response rating, Barnyardgrass ([16]; 62 g ai/ha): 95 | Plant response rating, Barnyardgrass ([16]; 125 g ai/ha): 98 | Plant response rating, Barnyardgrass ([16]; 250 g ai/ha): 100 | Plant response rating (scale of 0 to 100), Wheat [17, 19]: 20 | Plant response rating, Wheat ([17]; 62 g ai/ha): 70 | Plant response rating, Wheat ([17]; 125 g ai/ha): 80 | Plant response rating, Wheat ([17]; 250 g ai/ha): 95 | Plant response rating, Rice ([18]; 16 g ai/ha, scale 0 to 100 (0 no effect, 100 complete control), 13 to 15 d): 0 | Plant response rating (scale of 0 to 100), Rice ([18]; 31 g ai/ha): 0 | Plant response rating (scale of 0 to 100), Rice ([18]; 62 g ai/ha): 0 | Plant response rating (scale of 0 to 100), Rice ([18]; 125 g ai/ha): 0
